Data taken from patent US6596265B1, “Use of sophorolipids comprising diacetyl lactones as agent for stimulating skin fibroblast metabolism” (Institut Français du Pétrole, priority 1998, dated 2003).
Where “and” joins values, the source holds several entries; their conditions need not be identical. Equal values may be shown once. Marks after values point to notes of the source that are not given here.

Columns and labels:
Assay type in all cases: cell-based
Settings in all cases: 100 μg/ml, 3 days incubation
[1] = system: normal human dermal fibroblast cultures; assay: Protein content of fibroblast cell layers (cell division), Coomassie Blue/Bradford
Procedure: The effects of the product on cell division were evaluated by measuring the DNA and proteins in the cell layers after 3 days of incubation. Fibroblasts were isolated from the operative residue of abdominal plastic surgery carried out on a person. The cells were cultivated in fibroblast culture medium (FCM) at 37° C. in a moist atmosphere containing 5% of CO2 until confluence of the monolayers. The culture medium used was fibroblast culture medium (FCM), constituted by MEM/M199 (¾, ¼, v/v) with added penicillin (50 IU/ml), streptomycin (50 μg/ml), sodium bicarbonate (0.2%, wv/v) and SVF (10%, v/v). The fibroblast incubation medium (FIM) with the products was constituted by MEM/M199 (¾, ¼, v/v) with added penicillin (50 IU/ml), streptomycin (50 μg/ml), sodium bicarbonate (0.2%, w/v) and SVF (2%, v/v). It contained 1 μCi/ml of tritiated proline. The purified lactone fraction was diluted in FIM and was tested at 0.02, 0.08 and 0.4 μg/ml (dry matter). The unrefined sophorolipids were tested at 0.08; 0.4 and 2 μg/ml. The ascorbic acid was tested at 100 μg/ml (0.5 mM) in FIM. The fibroblast cultures were incubated for 3 days at 37° C. in a moist atmosphere containing 5% of CO2. Reference cultures, incubated in the absence of the products to be tested, were produced in parallel. The tests were carried out in triplicate. […]

[2] = system: normal human dermal fibroblast cultures; assay: Collagen neosynthesis: tritiated proline incorporation into secreted collagens (culture medium, >30 kD)
Excerpt: The effect of purified lactones on the synthesis of collagens in normal human dermal fibroblast cultures was studied. Collagyens are quantitatively the major dermal proteins. Proline and hydroxyproline constitute 30% of the constituent amino acids of collagens (a high percentage and much higher than that of the majority of other fibroblast proteins). Hydroxyproline is not an amino acid incorporated during the synthesis of collagens, as is the case with proline. Hydroxylation of proline, which leads to the presence of hydroxyproline in collagens, is a collagen maturation process which occurs once synthesis is complete. […] Collagen neosynthesis was measured by monitoring the incorporation of radiolabelled proline into newly synthesised fibroblast proteins. […] Fractions (1) and (2) were measured together and grouped under the title “cell layer collagens”. […] Measurement of incorporation of tritiated proline into “secreted collagens”: the incorporation of tritiated proline into neosynthesised collagens secreted in the culture medium was evaluated after 3 days of incubation. […] The radioactivity of the high molecular weight protein fraction (retained on the filters) corresponded almost exclusively to the secreted collagens and was measured by liquid scintillation with a β particle counter. […]

[3] = system: normal human dermal fibroblast cultures; assay: Collagen neosynthesis: tritiated proline incorporation into cell layer collagens
Excerpt: The effect of purified lactones on the synthesis of collagens in normal human dermal fibroblast cultures was studied. Collagyens are quantitatively the major dermal proteins. Proline and hydroxyproline constitute 30% of the constituent amino acids of collagens (a high percentage and much higher than that of the majority of other fibroblast proteins). Hydroxyproline is not an amino acid incorporated during the synthesis of collagens, as is the case with proline. Hydroxylation of proline, which leads to the presence of hydroxyproline in collagens, is a collagen maturation process which occurs once synthesis is complete. Measuring the incorporation of tritiated proline into fibroblast proteins thus provides a good index of collagen neosynthesis. […] Collagen neosynthesis was measured by monitoring the incorporation of radiolabelled proline into newly synthesised fibroblast proteins. […] Fractions (1) and (2) were measured together and grouped under the title “cell layer collagens”. […] Measurement of incorporation of tritiated proline into “cell layer collagens” the incorporation of tritiated proline into neosynthesised fibroblast proteins, the proteins present in the cells and deposited in the extracellular matrix, was evaluated after 3 days of incubation. The radioactivity of the cell lysate obtained as described above was measured by liquid scintillation with a β particle counter. […]

[4] = system: normal human dermal fibroblasts; assay: DNA content of fibroblast cell layers (cell division), HOECHST 33258 fluorimetry
Procedure: The effects of the product on cell division were evaluated by measuring the DNA and proteins in the cell layers after 3 days of incubation. Fibroblasts were isolated from the operative residue of abdominal plastic surgery carried out on a person. The cells were cultivated in fibroblast culture medium (FCM) at 37° C. in a moist atmosphere containing 5% of CO2 until confluence of the monolayers. The culture medium used was fibroblast culture medium (FCM), constituted by MEM/M199 (¾, ¼, v/v) with added penicillin (50 IU/ml), streptomycin (50 μg/ml), sodium bicarbonate (0.2%, wv/v) and SVF (10%, v/v). The fibroblast incubation medium (FIM) with the products was constituted by MEM/M199 (¾, ¼, v/v) with added penicillin (50 IU/ml), streptomycin (50 μg/ml), sodium bicarbonate (0.2%, w/v) and SVF (2%, v/v). It contained 1 μCi/ml of tritiated proline. The purified lactone fraction was diluted in FIM and was tested at 0.02, 0.08 and 0.4 μg/ml (dry matter). The ascorbic acid was tested at 100 μg/ml (0.5 mM) in FIM. The fibroblast cultures were incubated for 3 days at 37° C. in a moist atmosphere containing 5% of CO2. Reference cultures, incubated in the absence of the products to be tested, were produced in parallel. The tests were carried out in triplicate. After incubation, the incubation media were removed then the cell layers were rinsed with PBS The cells were then lysed by ultrasound. The DNA was assayed using a fluorimetric method using HOECHST 33258 reactant. The proteins in the cell lysate were assayed using the Coomassie Blue method described by Bradford. These assays ensured a suitable interpretation of the results obtained for collagen neosynthesis. Treatment of data: the groups of data (reference group and treated groups) were processed by a one-way variance analysis (ANOVA 1, p<0.05) followed by a Dunnett test (p<0.05). The effect of the products was thus compared with the control group.

## O=C1O[C@H]([C@@H](O)CO)C(O)=C1O [Ascorbic acid, ascorbic acid]
[1]
  Proteins in cell layer: 108 % of reference
[2]
  Secreted collagens (culture medium): 181%* % of control
[2]; factor versus control
  Increase of secreted collagens, factor: 1.81
[3]
  Cell layer collagens: 168%* % of control
[3]; factor versus control
  Increase of cell layer collagens, factor: 0.68
[4]
  DNA content, percentage of control: 90 percentage of control
[4]; mean of triplicate
  DNA content, mean: 7.5 μg/cell layer
[4]; single replicate
  DNA content, individual culture: 10 μg/cell layer and 6 μg/cell layer (2×)
